For data set [1], the system named is MOLT-4 (T cell leukemia cell). To be noted: MOLT-4 cell density after 3 days of culture, read from FIG. 2.
Method: In order to evaluate cytotoxicity of the cyclic phenol sulfide (III) in a human cell line, MOLT-4 (T cell leukemia cell, Riken Gene Bank accession number RCB 0206), was used in the test. The cyclic phenol sulfide (III) was dissolved in a medium (RPMI-1640 containing 10% FCS (fetal calf serum), kanamycin (5,000 U/ml) and streptomycin (5 mg/ml)) to a concentration of 2.5 mM, and the solution was made into 2-fold serial dilutions to prepare cyclic phenol sulfide (III)-containing medium samples having 11 steps of concentration. Each of the cyclic phenol sulfide (III)-containing medium samples was dispensed into wells of a 6-well plate in 2.5 ml, a MOLT-4 culture broth of 2×10^5 cells/ml was dispensed into the resulting wells in 2.5 ml, the cells were cultured at 37° C. for 3 days in a moist incubator containing 5% CO2, and then the cell density was measured using Celltac MEK-5254 (manufactured by NIHON KOHDEN).

Method for HIV-1: The cyclic phenol sulfide (III) was dissolved in the medium used in Example 8 to a concentration of 2.5 mM, and the solution was made into 2-fold serial dilutions to prepare cyclic phenol sulfide (III)-containing medium samples having 11 steps of concentration. Each of the cyclic phenol sulfide (III)-containing medium samples was dispensed into wells of a 6-well plate in 2.5 ml, a culture broth containing 1.64×10^5 cells/ml of MOLT-4 or 1.82×10^4 cells/ml of HIV-1-infected MOLT-4 was dispensed into the resulting wells in 2.5 ml, the cells were cultured at 37° C. for 3 days in a moist incubator containing 5% CO2, the resulting cell density was measured using Celltac MEK-5254 (manufactured by NIHON KOHDEN), and then a portion of the medium containing 10^6 cells was taken out to purify DNA. The number of HIV-1 DNA contained in 500 ng of the cell DNA was determined by competitive nested PCR.
Firstly, 500 ng of each cell DNA sample was mixed with 1 μM of the primers JA9 and JA12, 0.2 mM dNTP, 50 mM KCl, 10 mM Tris-HCl (pH 8.3), 4 mM MgCl2, 5,000 copies of the competitor and 2 units of Taq DNA polymerase manufactured by Roche), and the total volume was adjusted to 100 μl with Milli-Q water. […]

In the case of `O=S(=O)([O-])c1cc2c(O)c(c1)Sc1cc(S(=O)(=O)[O-])cc(c1O)Sc1cc(S(=O)(=O)[O-])cc(c1O)Sc1cc(S(=O)(=O)[O-])cc(c1O)S2.[Na+].[Na+].[Na+].[Na+]` [cyclic phenol sulfide (III), sodium salt of 25,26,27,28-tetrahydroxy-2,8,14,20-tetrathia[19.3.1.1^3,71^9,131^15,19]octacosa-1(25),3,5,7(28),9,11,13(27),15,17,19(26),21,23-dodecaene-5,11,17,23-tetrasulfonic acid], the CC50 (commonly the concentration giving 50% cytotoxicity) in data set [1] was 700 µM. Further, half-maximal inhibition in the data set on HIV-1 (HIV-1 DNA concentration after 3 days of infection, MOLT-4 / HIV-1-infected MOLT-4 co-culture, read from FIG. 2) (IC50) was put at 40 µM. In addition, in the data set on HIV-1 (from Example 8 and Example 9), the “therapeutic ratio (=CC50/IC50)” value was found to be 18.
